Calls of active or inactive are those of the source. The calls are words filed in the database; no cut-off is given here.

Results on one compound are retold here after ChEMBL document CHEMBL4680162, “Synthesis and pharmacological evaluation of chlorin derivatives for photodynamic therapy of cholangiocarcinoma” (Eur J Med Chem, 2020).

The nature of data set [1]: Drug localization in nucleus of human QBC939 cells at 4 uM incubated for 4 hrs in dark by Hoechst 33342 based confocal microscopic method. The format is ADME, subcellular. Particulars: qbc939, 4 h.
A short description of data set [2]: Induction of apoptosis in human QBC939 cells assessed as viable cells at 2 uM by annexin V-FITC and propidium iodide staining based flow cytometric analysis (reference value: 99.99 %). The format is functional. The conditions noted are these: read-out: Activity. On the technique in general: In flow cytometry, cells or beads pass a laser one at a time.
Data set [3] in a line: Absorption property of the compound in DMF assessed as Q band log absorption coefficient by UV-visible spectrophotometric method. The format is physicochemical.
A short description of data set [4]: Induction of apoptosis in human QBC939 cells assessed as late apoptotic cells at 2 uM in presence of 2J/cm2 light irradiation measured after 24 hrs by annexin V-FITC and propidium iodide staining based flow cytometric analysis (reference value: 0.01 %). In kind it is functional.
Data set [5] is described as follows: Absorption property of compound in poly-oxyethylene castor oil and PBS assessed as Q band maximum absorption wavelength by UV-visible spectrophotometric method. The format is physicochemical. The conditions noted are these: buffer.
Data set [6] is described as follows: Induction of apoptosis in human QBC939 cells assessed as necrotic cells at 2 uM in presence of 2J/cm2 light irradiation measured after 2 hrs by annexin V-FITC and propidium iodide staining based flow cytometric analysis (reference value: 0.02 %). In kind it is functional.
Data set [7] can be described thus: Induction of apoptosis in human QBC939 cells assessed as viable cells at 2 uM in presence of 2J/cm2 light irradiation measured after 24 hrs by annexin V-FITC and propidium iodide staining based flow cytometric analysis (reference value: 99.6 %). The format is functional. The conditions noted are these: QBC939, light or radiation study, read-out: Activity.
Data set [8] is described as follows: Phototoxicity in BALB/c nude mouse xenografted with QBC939 cells assessed as change in lung at 1 mg/kg, iv followed by laser light irradiation at 120 J/cm2 measured after 1 day of light irradiation by H and E staining based histological analysis. In kind it is organism-based. Particulars: in vivo, 24 h.
The nature of data set [9]: Induction of singlet oxygen generation in DMSO assessed as bleaching rate at 10 uM under 650 nanometer light irradiation. The format is functional.
Data set [10] can be described thus: Induction of apoptosis in human QBC939 cells assessed as early apoptotic cells at 2 uM in presence of 2J/cm2 light irradiation measured after 24 hrs by annexin V-FITC and propidium iodide staining based flow cytometric analysis (reference value: 0.01 %). In kind it is functional.
Data set [11] relates to QBC939. As to the kind of experiment: Photodynamic antitumor activity against human QBC939 cells xenografted in BALB/c nude mouse assessed as increase in tumor tissue damage at 1 mg/kg, iv followed by laser light irradiation at 120 J/cm2 measured after 1 day of light irradiation by H and E staining based histological analysis. The format is functional, organism-based. (In general: In xenograft studies the graft and the host belong to different species.)

For data set [12], the system named is QBC939. As to the kind of experiment: Photodynamic antitumour activity against human QBC939 cells xenografted in BABL/c nude mouse assessed as increase in apoptotic cells at 1 mg/kg, iv measured after 1 day of light irradiation by TUNEL assay. In kind it is functional, organism-based.
Data set [13] can be described thus: Phototoxicity in ICR mouse assessed as back skin weight at 1 mg/kg, iv followed by 10 mW/cm2 light irradiation for 10 mins at 1 day after drug challenge and measured after 1 day of light irradiation by H and E staining based microscopic analysis (reference value: 34.3 +/- 2.1 mg). In kind it is organism-based. Particulars: in vivo, 48 h, time 2 day.
The nature of data set [14]: Photodynamic antitumor activity against human QBC939 cells xenografted in BALB/c nude mouse assessed as tumor weight at 1 mg/kg, iv followed by laser light irradiation at 120 J/cm2 measured after 13 days. In kind it is functional. The conditions noted are these: time 13 day.
Data set [15] is described as follows: Induction of apoptosis in human QBC939 cells assessed as viable cells at 2 uM in presence of 2J/cm2 light irradiation measured after 2 hrs by annexin V-FITC and propidium iodide staining based flow cytometric analysis (reference value: 99.6 %). In kind it is functional. The conditions noted are these: QBC939, light or radiation study, read-out: Activity.

With `COC(=O)C1(C(=O)O)C2c3nc(c(-c4ccccc4)c4ccc([nH]4)c(-c4ccccc4)c4nc(c(-c5ccccc5)c5ccc([nH]5)c3-c3ccccc3)C=C4)C21` (stereo not given), the Drug uptake entry in [1] is “Not Active”. The viability at 2 µM stood at 94.3% in data set [2], 2.1% in data set [7] and 51.3% in [15]. The Activity in data set [3] is reported as 3.02; in data set [4] it was 69.12%; in data set [5], 655 nm; in [6], 10.73%; in data set [8], “Non-Toxic”; in [10], 20.99%. Besides, the Activity in data set [13] is recorded as 35.1 mg; in [14], 10%. Besides, the outcome in [9], in [11] and in [12] was Active.
